The source made the active and inactive calls. The rule behind the calls is not given here.
Tests used:
Mus musculus [1] = assay: Antiinflammatory activity against carrageenan-induced paw oedema in mouse at 1 mg/kg, ip treated 30 mins before carrageenan challenge measured after 2 hrs by plethysmometry analysis; assay type: functional; conditions: route intraperitoneal
Mus musculus [2] = assay: Antiinflammatory activity against bradykinin-induced paw oedema in mouse at 1 mg/kg, ip treated 30 mins before bradykinin challenge measured after 30 mins by plethysmometry analysis; assay type: functional; conditions: route intraperitoneal
Mus musculus [3] = assay: Antiinflammatory activity against carrageenan-induced paw oedema in mouse at 1 mg/kg, ip treated 30 mins before carrageenan challenge measured after 1 hr by plethysmometry analysis; assay type: functional; conditions: route intraperitoneal
Mus musculus [4] = assay: Antiinflammatory activity against carrageenan-induced paw oedema in mouse at 1 mg/kg, ip treated 30 mins before carrageenan challenge measured after 6 hrs by plethysmometry analysis; assay type: functional; conditions: route intraperitoneal
Mus musculus [5] = assay: Antiinflammatory activity against bradykinin-induced paw oedema in mouse at 1 mg/kg, ip treated 30 mins before bradykinin challenge measured after 15 mins by plethysmometry analysis; assay type: functional; conditions: route intraperitoneal
Mus musculus [6] = assay: Antiinflammatory activity against bradykinin-induced paw oedema in mouse at 1 mg/kg, ip treated 30 mins before bradykinin challenge measured after 240 mins by plethysmometry analysis; assay type: functional; conditions: route intraperitoneal
Mus musculus [7] = assay: Antiinflammatory activity against carrageenan-induced paw oedema in mouse at 1 mg/kg, ip treated 30 mins before carrageenan challenge measured after 5 hrs by plethysmometry analysis; assay type: functional; conditions: route intraperitoneal
Mus musculus [8] = assay: Antiinflammatory activity against bradykinin-induced paw oedema in mouse at 1 mg/kg, ip treated 30 mins before bradykinin challenge measured after 120 mins by plethysmometry analysis; assay type: functional; conditions: route intraperitoneal
Mus musculus [9] = assay: Antiinflammatory activity against carrageenan-induced paw oedema in mouse at 1 mg/kg, ip treated 30 mins before carrageenan challenge measured after 4 hrs by plethysmometry analysis; assay type: functional; conditions: route intraperitoneal
Mus musculus [10] = assay: Antiinflammatory activity against bradykinin-induced paw oedema in mouse at 1 mg/kg, ip treated 30 mins before bradykinin challenge measured after 60 mins by plethysmometry analysis; assay type: functional; conditions: route intraperitoneal
[11] = Cytotoxicity against mouse RAW264.7 cells assessed as cell viability at 10 uM after 24 hrs by MTT assay; assay type: cell-based; conditions: read-out: Activity
Mus musculus [12] = assay: Antinociceptive activity against formalin-induced nociception in ip dosed mouse assessed as inhibition of paw licking time administered 30 mins before formalin challenge measured after 30 mins; assay type: functional, organism-based
RAW264.7 [13] = assay: Reduction in LPS-induced nitric oxide production in mouse RAW264.7 cells at 10 uM after 24 hrs by Griess assay (Rvb=74.2 +/- 1.6 uM); assay type: functional
RAW264.7 [14] = assay: Antiinflammatory activity in mouse RAW264.7 cells assessed as inhibition of LPS-induced PGE2 production at 3 uM after 24 hrs by enzyme immunoassay; assay type: functional; conditions: RAW264.7, 24 h
Mus musculus [15] = assay: Antinociceptive activity against formalin-induced nociception in mouse assessed as inhibition of paw licking time at 10 mg/kg, ip administered 30 mins before formalin challenge measured after 30 mins relative to control; assay type: functional; conditions: route intraperitoneal
RAW264.7 [16] = assay: Reduction in LPS-induced nitric oxide production in mouse RAW264.7 cells at 3 uM after 24 hrs by Griess assay (Rvb=74.2 +/- 1.6 uM); assay type: functional
Mus musculus [17] = assay: Antiinflammatory activity against carrageenan-induced paw oedema in mouse at 10 mg/kg, ip treated 30 mins before carrageenan challenge measured after 4 hrs by plethysmometry analysis; assay type: functional; conditions: route intraperitoneal
[18] = Cytotoxicity against mouse RAW264.7 cells assessed as cell viability at 3 uM after 24 hrs by MTT assay; assay type: cell-based; conditions: read-out: Activity
Mus musculus [19] = assay: Antiinflammatory activity in mouse assessed as neutrophil population in peritoneal exudate during carrageenan-induced inflammation at 0.5 mg/kg, sc administered 4 hrs before carrageenan challenge measured after 4 hrs by myeloperoxidase activity assay; assay type: functional; conditions: route subcutaneous
Mus musculus [20] = assay: Antiinflammatory activity in ip dosed mouse assessed as inhibition of acetic acid-induced abdominal constriction administered 30 mins before acetic acid challenge; assay type: functional, Abdomen
Mus musculus [21] = assay: Neurotoxicity in mouse assessed as muscular impairment at 10 mg/kg, ip administered 15 mins before test measured after 60 seconds by rotarod test; assay type: toxicity, organism-based; set-up: dose 10 mg/kg, route intraperitoneal; conditions: in vivo, 0.25 h
Mus musculus [22] = assay: Antiinflammatory activity against bradykinin-induced paw oedema in mouse at 10 mg/kg, ip treated 30 mins before bradykinin challenge measured after 15 mins by plethysmometry analysis; assay type: functional; conditions: route intraperitoneal
Mus musculus [23] = assay: Antiinflammatory activity against bradykinin-induced paw oedema in mouse at 10 mg/kg, ip treated 30 mins before bradykinin challenge measured after 30 mins by plethysmometry analysis; assay type: functional; conditions: route intraperitoneal
Mus musculus [24] = assay: Antiinflammatory activity against carrageenan-induced paw oedema in mouse at 10 mg/kg, ip treated 30 mins before carrageenan challenge measured after 5 hrs by plethysmometry analysis; assay type: functional; conditions: route intraperitoneal
RAW264.7 [25] = assay: Reduction in LPS-induced nitric oxide production in mouse RAW264.7 cells at 1 uM after 24 hrs by Griess assay (Rvb=74.2 +/- 1.6 uM); assay type: functional
Mus musculus [26] = assay: Antiinflammatory activity against carrageenan-induced paw oedema in mouse at 10 mg/kg, ip treated 30 mins before carrageenan challenge measured after 2 hrs by plethysmometry analysis; assay type: functional; conditions: route intraperitoneal
Mus musculus [27] = assay: Antiinflammatory activity against carrageenan-induced paw oedema in mouse at 10 mg/kg, ip treated 30 mins before carrageenan challenge measured after 6 hrs by plethysmometry analysis; assay type: functional; conditions: route intraperitoneal
Mus musculus [28] = assay: Antiinflammatory activity against bradykinin-induced paw oedema in mouse at 10 mg/kg, ip treated 30 mins before bradykinin challenge measured after 240 mins by plethysmometry analysis; assay type: functional; conditions: route intraperitoneal
Mus musculus [29] = assay: Neurotoxicity in mouse assessed as depression activity at 10 mg/kg, ip treated 15 mins before test measured after 60 seconds by rotarod test; assay type: toxicity, organism-based; set-up: dose 10 mg/kg, route intraperitoneal; conditions: in vivo, 0.25 h
Mus musculus [30] = assay: Antiinflammatory activity in mouse assessed as neutrophil population in peritoneal exudate during carrageenan-induced inflammation at 1 mg/kg, ip administered 30 mins before carrageenan challenge measured after 4 hrs by myeloperoxidase activity assay; assay type: functional; conditions: route intraperitoneal
Mus musculus [31] = assay: Antiinflammatory activity against bradykinin-induced paw oedema in mouse at 10 mg/kg, ip treated 30 mins before bradykinin challenge measured after 120 mins by plethysmometry analysis; assay type: functional; conditions: route intraperitoneal
RAW264.7 [32] = assay: Antiinflammatory activity in mouse RAW264.7 cells assessed as inhibition of LPS-induced PGE2 production at 100 uM after 24 hrs by enzyme immunoassay; assay type: functional; conditions: RAW264.7, 24 h
Mus musculus [33] = assay: Neurotoxicity in mouse assessed as muscular impairment at 1 mg/kg, ip administered 15 mins before test measured after 60 seconds by rotarod test; assay type: toxicity, organism-based; set-up: dose 1 mg/kg, route intraperitoneal; conditions: in vivo, 0.25 h
Mus musculus [34] = assay: Antiinflammatory activity in mouse assessed as neutrophil population in peritoneal exudate during carrageenan-induced inflammation at 10 mg/kg, ip administered 30 mins before carrageenan challenge measured after 4 hrs by myeloperoxidase activity assay; assay type: functional; conditions: route intraperitoneal
Mus musculus [35] = assay: Antiinflammatory activity against bradykinin-induced paw oedema in mouse at 10 mg/kg, ip treated 30 mins before bradykinin challenge measured after 60 mins by plethysmometry analysis; assay type: functional; conditions: route intraperitoneal
Mus musculus [36] = assay: Antiinflammatory activity in mouse peritoneal cavity assessed as reduction in cell migration during carrageenan-induced inflammation at 1 mg/kg, ip administered 30 mins before carrageenan challenge measured after 4 hrs; assay type: functional, organism-based; set-up: dose 1 mg/kg
Mus musculus [37] = assay: Antiinflammatory activity against carrageenan-induced paw oedema in mouse at 10 mg/kg, ip treated 30 mins before carrageenan challenge measured after 1 hr by plethysmometry analysis; assay type: functional; conditions: route intraperitoneal
Mus musculus [38] = assay: Antiinflammatory activity in mouse assessed as reduction in total cell count in peritoneal exudate during carrageenan-induced inflammation at 0.5 mg/kg, sc administered 4 hrs before carrageenan challenge measured after 4 hrs; assay type: functional; set-up: scale not given: the % may be the effect or the level left; conditions: route subcutaneous
Mus musculus [39] = assay: Antiinflammatory activity in mouse peritoneal cavity assessed as reduction in cell migration during carrageenan-induced inflammation at 0.1 mg/kg, ip administered 30 mins before carrageenan challenge measured after 4 hrs; assay type: functional, organism-based; set-up: dose 0.1 mg/kg
Mus musculus [40] = assay: Neurotoxicity in mouse assessed as depression activity at 1 mg/kg, ip administered 15 mins before test measured after 60 seconds by rotarod test; assay type: toxicity, organism-based; set-up: dose 1 mg/kg, route intraperitoneal; conditions: in vivo, 0.25 h
RAW264.7 [41] = assay: Antiinflammatory activity in mouse RAW264.7 cells assessed as inhibition of LPS-induced PGE2 production at 10 uM after 24 hrs by enzyme immunoassay; assay type: functional; conditions: RAW264.7, 24 h
Mus musculus [42] = assay: Antiinflammatory activity in mouse assessed as reduction in total cell count in peritoneal exudate during carrageenan-induced inflammation at 10 mg/kg, ip administered 30 mins before carrageenan challenge measured after 4 hrs; assay type: functional; set-up: scale not given: the % may be the effect or the level left; conditions: route intraperitoneal
[43] = Cytotoxicity against mouse RAW264.7 cells assessed as cell viability at 1 uM after 24 hrs by MTT assay; assay type: cell-based; conditions: read-out: Activity
Mus musculus [44] = assay: Antiinflammatory activity in mouse assessed as neutrophil population in peritoneal exudate during carrageenan-induced inflammation at 0.1 mg/kg, ip administered 30 mins before carrageenan challenge measured after 4 hrs by myeloperoxidase activity assay; assay type: functional; conditions: route intraperitoneal

Molecule `COc1ccc2c(c1)c(CC(=O)O)c(C)n2C(=O)c1ccc(Cl)cc1` [INDOMETHACIN] has an inhibition in vivo at 1 mg/kg (Mus musculus [1]) of 10.8%, an inhibition in vivo at 1 mg/kg (Mus musculus [2]) of 3.5% and an inhibition in vivo at 1 mg/kg (Mus musculus [3]) of 12.6%. The inhibition in vivo at 1 mg/kg (Mus musculus [4]) was 5.66%, the inhibition in vivo at 1 mg/kg (Mus musculus [5]) was 5% and the inhibition in vivo at 1 mg/kg (Mus musculus [6]) was 1.9%. The inhibition in vivo at 1 mg/kg (Mus musculus [7]) was 6.28%, the inhibition in vivo at 1 mg/kg (Mus musculus [8]) was 2.09% and the inhibition in vivo at 1 mg/kg (Mus musculus [9]) was 7.14%. For the same molecule, the inhibition in vivo at 1 mg/kg (Mus musculus [10]) was 2.5%.

In the case of `COc1cc(/C=C/C(=O)/C=C/c2ccc(OC(C)=O)c(OC)c2)ccc1OC(C)=O`, the viability at 24 h, 10 µM [11] is reported as > 90%, the EC50 (Mus musculus [12]) is reported as 5.8 mg/kg and the Activity (RAW264.7 [13]) is reported as 3 µM. It also gave an inhibition at 3 µM (RAW264.7 [14]) of 48%, an inhibition in vivo at 10 mg/kg (Mus musculus [15]) of 86% and an Activity (RAW264.7 [16]) of 20 µM. The inhibition in vivo at 10 mg/kg (Mus musculus [17]) was 8.67%, the viability at 24 h, 3 µM [18] was > 90% and the Activity (Mus musculus [19]) was 98%. For the same molecule, the “inhibition (INH)” value (Mus musculus [20]) was 82.5%, the ED50 (Mus musculus [20]; Mus musculus, Abdomen, ip) was 7.6 mg/kg and the Activity (Mus musculus [21]) was “Non-toxic”. The inhibition in vivo at 10 mg/kg (Mus musculus [22]) was 4.25%, the inhibition in vivo at 10 mg/kg (Mus musculus [23]) was 3% and the inhibition in vivo at 10 mg/kg (Mus musculus [24]) was 8.57%. It also gave an Activity (RAW264.7 [25]) of 49 µM, an inhibition in vivo at 10 mg/kg (Mus musculus [26]) of 12.1% and an inhibition in vivo at 10 mg/kg (Mus musculus [27]) of 6.57%. For the same molecule, the inhibition in vivo at 10 mg/kg (Mus musculus [28]) was 2.18%, the Activity (Mus musculus [29]) was “Non-toxic” and the Activity (Mus musculus [30]) was 98%. The inhibition in vivo at 10 mg/kg (Mus musculus [31]) was 2.5%, the inhibition at 100 µM (RAW264.7 [32]) was 76% and the Activity (Mus musculus [33]) was “Non-toxic”. For the same molecule, the Activity (Mus musculus [34]) was 98%, the inhibition in vivo at 10 mg/kg (Mus musculus [35]) was 2.8% and the Activity (Mus musculus [36]) was “inactive”. The inhibition in vivo at 10 mg/kg (Mus musculus [37]) was 10.8%, the Activity (Mus musculus [38]) was 20% and the Activity (Mus musculus [39]) was “inactive”. For the same molecule, the Activity (Mus musculus [40]) was “Non-toxic”, the inhibition at 10 µM (RAW264.7 [41]) was 71% and the Activity (Mus musculus [42]) was 50%. The viability at 24 h, 1 µM [43] was > 90% and the Activity (Mus musculus [44]) was 98%.
